Measured values reported in US20250295646A1, “METHODS OF USE OF T-TYPE CALCIUM CHANNEL MODULATORS” (Praxis Precision Medicines, Inc., priority 2022, published 2025).

What was measured:
[1] = test system: adult patients with essential tremor; assay: Essential tremor trial Example 16 Part B randomized withdrawal phase: TETRAS, mADL, ADL efficacy; assay type: in vivo, human; details: Part B RWD, Formula (I) group, Day 56
Experimental: A two part trial (Part A and Part B as described below) was conducted to study the efficacy, safety, tolerability, and pharmacokinetics of the compound of formula (I) in adult patients with essential tremor (ET).
Participants were males and females ages 18 and older with a clinical diagnosis of ET. Participants who have a history of any other medical, neurological, or psychiatric condition that may explain or cause tremor were excluded. Participants who have previously received treatment with formula (I) in any clinical trial (including Part A of the current trial for participants enrolling in Part B) were also excluded.
In Part B, an open label titration phase and a randomized, double-blind, placebo-controlled trial was conducted.

[2] = test system: adult patients with essential tremor; assay: Example 16: Clinical Global Impression (CGI-I, CGI-S); assay type: in vivo, human; details: for participants with CGI-I much improved / participants with CGI-I score reflecting no change in symptoms: Part B OLT
From the text: Patients were scheduled for Safety Follow-up on Day 70 (±1 day) in the clinic for the final clinical trial assessment.

[3] = Part B RWD (RWAS), Day 56, n 6, change from randomization baseline
[4] = Part B RWD (RWAS), Day 70, n 5, change from randomization baseline

For `CC(C)(C)NC(=O)CN1CCC(CNC(=O)c2cc(F)cc(Cl)c2)CC1` [compound of formula (I), N-((1-(2-(tert-butylamino)-2-oxoethyl)piperidin-4-yl)methyl)-3-chloro-5-fluorobenzamide], the “increase in upper limb tremor amplitude” value [1] was 12.8%, the “mADL total score, LS mean change from randomization baseline (Day 42)” value [1] was 1.350 and the “CGI-I Score 0 not assessed” value ([2]; Part A (FAS), Day 7, n 6) was 0 n (%). For the same molecule, the “CGI-I Score 1 very much improved” value ([2]; Part A (FAS), Day 7, n 6) was 0 n (%), the “CGI-I Score 2 Much improved” value ([2]; Part A (FAS), Day 7, n 6) was 1 n (%) and the “CGI-I Score 3 minimally improved” value ([2]; Part A (FAS), Day 7, n 6) was 1 (16.7) n (%). The “CGI-I Score 4 no change” value ([2]; Part A (FAS), Day 7, n 6) was 4 (66.7) n (%), the “CGI-I Score 5 minimally worse” value ([2]; Part A (FAS), Day 7, n 6) was 0 n (%) and the “CGI-I Score 6 much worse” value ([2]; Part A (FAS), Day 7, n 6) was 0 n (%). For the same molecule, the “CGI-I Score 7 very much worse” value ([2]; Part A (FAS), Day 7, n 6) was 0 n (%), the “CGI-I Score 0 not assessed” value ([2]; Part A (FAS), Day 14, n 6) was 0 n (%) and the “CGI-I Score 1 very much improved” value ([2]; Part A (FAS), Day 14, n 6) was 0 n (%). For the same molecule, the “CGI-I Score 2 Much improved” value ([2]; Part A (FAS), Day 14, n 6) was 1 n (%), the “CGI-I Score 3 minimally improved” value ([2]; Part A (FAS), Day 14, n 6) was 5 (83.3) n (%) and the “CGI-I Score 4 no change” value ([2]; Part A (FAS), Day 14, n 6) was 0 n (%). For the same molecule, the “CGI-I Score 5 minimally worse” value ([2]; Part A (FAS), Day 14, n 6) was 0 n (%), the “CGI-I Score 6 much worse” value ([2]; Part A (FAS), Day 14, n 6) was 0 n (%) and the “CGI-I Score 7 very much worse” value ([2]; Part A (FAS), Day 14, n 6) was 0 n (%). The “participants with CGI-I score not changed relative to pre-dose baseline” value ([2]; Part A, Day 7) was 66.7%, the “participants with CGI score minimally improved” value ([2]; Part A, Day 14) was 83.3% and the “participants with CGI score much improved” value ([2]; Part A, Day 14) was 16.7%. For the same molecule, the “CGI-I Score 0 not assessed” value ([2]; Part B OLT (FAS), Day 7, n 12) was 1 (8.3) n (%), the “CGI-I Score 1 very much improved” value ([2]; Part B OLT (FAS), Day 7, n 12) was 0 n (%) and the “CGI-I Score 2 Much improved” value ([2]; Part B OLT (FAS), Day 7, n 12) was 1 n (%). For the same molecule, the “CGI-I Score 3 minimally improved” value ([2]; Part B OLT (FAS), Day 7, n 12) was 5 (41.7) n (%), the “CGI-I Score 4 no change” value ([2]; Part B OLT (FAS), Day 7, n 12) was 4 (33.3) n (%) and the “CGI-I Score 5 minimally worse” value ([2]; Part B OLT (FAS), Day 7, n 12) was 1 (8.3) n (%). The “CGI-I Score 6 much worse” value ([2]; Part B OLT (FAS), Day 7, n 12) was 0 n (%), the “CGI-I Score 7 very much worse” value ([2]; Part B OLT (FAS), Day 7, n 12) was 0 n (%) and the “CGI-I Score 0 not assessed” value ([2]; Part B OLT (FAS), Day 21, n 12) was 0 n (%). The “CGI-I Score 1 very much improved” value ([2]; Part B OLT (FAS), Day 21, n 12) was 1 (8.3) n (%), the “CGI-I Score 2 Much improved” value ([2]; Part B OLT (FAS), Day 21, n 12) was 1 n (%) and the “CGI-I Score 3 minimally improved” value ([2]; Part B OLT (FAS), Day 21, n 12) was 5 (41.7) n (%). For the same molecule, the “CGI-I Score 4 no change” value ([2]; Part B OLT (FAS), Day 21, n 12) was 5 (41.7) n (%), the “CGI-I Score 5 minimally worse” value ([2]; Part B OLT (FAS), Day 21, n 12) was 0 n (%) and the “CGI-I Score 6 much worse” value ([2]; Part B OLT (FAS), Day 21, n 12) was 0 n (%). For the same molecule, the “CGI-I Score 7 very much worse” value ([2]; Part B OLT (FAS), Day 21, n 12) was 0 n (%), the “CGI-I Score 0 not assessed” value ([2]; Part B OLT (FAS), Day 42, n 11) was 0 n (%) and the “CGI-I Score 1 very much improved” value ([2]; Part B OLT (FAS), Day 42, n 11) was 0 n (%). The “CGI-I Score 2 Much improved” value ([2]; Part B OLT (FAS), Day 42, n 11) was 4 n (%), the “CGI-I Score 3 minimally improved” value ([2]; Part B OLT (FAS), Day 42, n 11) was 4 (36.4) n (%) and the “CGI-I Score 4 no change” value ([2]; Part B OLT (FAS), Day 42, n 11) was 3 (27.3) n (%). For the same molecule, the “CGI-I Score 5 minimally worse” value ([2]; Part B OLT (FAS), Day 42, n 11) was 0 n (%), the “CGI-I Score 6 much worse” value ([2]; Part B OLT (FAS), Day 42, n 11) was 0 n (%) and the “CGI-I Score 7 very much worse” value ([2]; Part B OLT (FAS), Day 42, n 11) was 0 n (%). The “participants with CGI-I much improved” value ([2]; Day 7) was 8.3%, the “participants with CGI-I score reflecting no change in symptoms” value ([2]; Day 7) was 33.3% and the “participants with CGI-I much improved” value ([2]; Day 42) was 36.4%. For the same molecule, the “participants with CGI-I score reflecting no change in symptoms” value ([2]; Day 42) was 27.3%, the “CGI-I Score 0 not assessed” value [2, 3] was 0 n (%) and the “CGI-I Score 1 very much improved” value [2, 3] was 0 n (%). For the same molecule, the “CGI-I Score 2 Much improved” value [2, 3] was 0 n (%), the “CGI-I Score 3 minimally improved” value [2, 3] was 1 (16.7) n (%) and the “CGI-I Score 4 no change” value [2, 3] was 5 (83.3) n (%). For the same molecule, the “CGI-I Score 5 minimally worse” value [2, 3] was 0 n (%), the “CGI-I Score 6 much worse” value [2, 3] was 0 n (%) and the “CGI-I Score 7 very much worse” value [2, 3] was 0 n (%). For the same molecule, the “CGI-I Score 0 not assessed” value [2, 4] was 0 n (%), the “CGI-I Score 1 very much improved” value [2, 4] was 0 n (%) and the “CGI-I Score 2 Much improved” value [2, 4] was 0 n (%). For the same molecule, the “CGI-I Score 3 minimally improved” value [2, 4] was 0 n (%), the “CGI-I Score 4 no change” value [2, 4] was 4 (80.0) n (%) and the “CGI-I Score 5 minimally worse” value [2, 4] was 1 (20.0) n (%). The “CGI-I Score 6 much worse” value [2, 4] was 0 n (%) and the “CGI-I Score 7 very much worse” value [2, 4] was 0 n (%).
